The assay deals with M. tuberculosis H37Rv growth inhibition with meropenem. Nature of the assay: dose response, H37Rv, with and without meropenem (AID 434987).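 Further: growth over 7 days at 37 °C before Alamar Blue read on day 9.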
Where [1] appears, read: M. tuberculosis H37Rv growth inhibition, measured here: IC50 without meropenem.
Setting [2] is: M. tuberculosis H37Rv growth inhibition, measured here: IC90 without meropenem.
[3] abbreviates: measured here: IC90 with meropenem.

Each structure is given as a SMILES string. pIC50: −log10 of the molar value. Calls of active or inactive are those of the source. How the calls were made is not given here.

As to `CCOc1ccc(N(CC(=O)NCCSCc2ccccc2Cl)S(C)(=O)=O)cc1`, the IC50 is > 100 µM (inactive). The pIC50 under setting [1] was < 4.00. The IC90 under setting [2] was > 100 µM. Under setting [3], the IC90 is > 100 µM.
Regarding `CCCCNC(=O)c1onc(CSc2ccc(OC)cc2)c1C(=O)O`, the IC50 is 23.9 µM (inactive). The molecule also gave a pIC50 under setting [1] of 4.33. The molecule also displayed an IC90 under setting [2] of 53.1 µM. The molecule also showed an IC90 under setting [3] of 27.2 µM.
Taken in the same sequence, the figures for `Cn1nnnc1Sc1ncnc2scc(-c3ccccc3)c12` were > 100 µM (inactive), < 4.00, > 100 µM and > 100 µM.
For the molecule `Cc1ccc(S(=O)(=O)N[C@H](C(=O)OCn2nnc3ccccc3c2=O)C(C)C)cc1`, the IC50 is > 100 µM (inactive). In addition, under setting [1], the negative logarithm of the IC50 (pIC50) was < 4.00. Further, the IC90 under setting [2] is > 100 µM. The IC90 under setting [3] was > 100 µM.
For `c1ccc(CSc2nnc(-c3ccco3)o2)cc1`, the IC50 was > 100 µM (inactive). Further, under setting [1], the pIC50 was < 4.00. Moreover, under setting [2], the IC90 was > 100 µM. The IC90 under setting [3] was > 100 µM.
`COc1ccc2c(C)nc(Nc3nc(-c4ccccc4)cc(=O)[nH]3)nc2c1`: the IC50 is > 100 µM (inactive). For the same molecule, under setting [1], the pIC50 is < 4.00. Further, the IC90 under setting [2] was > 100 µM. Also, under setting [3], the IC90 was > 100 µM.
Take `CN(C)c1ccc(/C=N/NC(N)=S)cc1[N+](=O)[O-]`: the negative logarithm of the IC50 (pIC50) is 4.70. Besides, the pIC50 under setting [1] is < 4.00. The concentration for an effect of 90% (IC90) under setting [2] is > 100 µM. For the same molecule, the IC90 under setting [3] was > 50 µM.
With `CC(C)(C)NS(=O)(=O)c1ccc(NC(=O)C(Sc2ccccc2)c2ccccc2)cc1` (stereo not drawn), the IC50 was > 100 µM (inactive). In addition, under setting [1], the pIC50 was < 4.00. Also, the concentration for an effect of 90% (IC90) under setting [2] was > 100 µM. Also, under setting [3], the IC90 is > 100 µM.
In the case of `O=C1OC(c2ccco2)=N/C1=C\c1ccc(-c2cccc(C(F)(F)F)c2)o1`, the IC50 was 48.9 µM (inactive). The molecule also gave a pIC50 under setting [1] of 4.12. In addition, the IC90 under setting [2] was > 100 µM. Moreover, the IC90 under setting [3] worked out at 53.4 µM.
As for `Cn1cccc1/C=C1/C(=O)NC(=O)N(Cc2ccc(F)cc2)C1=O`, the IC50 is 23.7 µM (inactive). This molecule also gave a pIC50 under setting [1] of 4.34. The IC90 under setting [2] is > 50 µM. Moreover, under setting [3], the IC90 is > 50 µM.
`O=C(Nc1nc(-c2ccc3c(c2)OCCO3)cs1)c1ccc(S(=O)(=O)N2CCCCC2)cc1`: the IC50 was > 100 µM (inactive). In addition, the pIC50 under setting [1] was < 4.00. The IC90 under setting [2] was > 100 µM. Besides, the IC90 under setting [3] was > 100 µM.
As for `O=C(COc1cccc2cccnc12)N/N=C/c1ccc(O)cc1`, the pIC50 is 4.57. Besides, under setting [1], the pIC50 was < 4.00. Also, under setting [2], the IC90 is > 100 µM. The IC90 under setting [3] was > 50 µM.
Taken in the same sequence, the figures for `Cc1c(OCc2ccc(C(=O)O)cc2)ccc2c(-c3ccccc3)cc(=O)oc12` were 5.85, 4.34, 96.7 µM and 2.09 µM.
For `Cc1cccc(Cn2c(N3CCN(c4ccccc4)CC3)nc3c2c(=O)n(C)c(=O)n3C)c1`, the IC50 was > 100 µM (inactive). Besides, the negative-log IC50 (pIC50) under setting [1] is < 4.00. Besides, the IC90 under setting [2] is > 100 µM. Further, the 90% effect concentration (IC90) under setting [3] is > 100 µM.
In the case of `Cc1ccc(CNC(=O)c2ccccc2NC(=O)CSc2nnnn2C)cc1`, the IC50 is 36.6 µM (inactive). Moreover, the pIC50 under setting [1] is 4.09. Also, under setting [2], the concentration for an effect of 90% (IC90) was > 100 µM. Besides, under setting [3], the IC90 is > 100 µM.
Take `CNC(=O)Nc1cccc(-c2cc(-c3c(Cl)cccc3Cl)no2)c1`: the IC50 was > 100 µM (inactive). Besides, the pIC50 under setting [1] is < 4.00. In addition, the IC90 under setting [2] is > 100 µM. In addition, the IC90 under setting [3] was > 100 µM.
In the case of `c1ccc(-n2c3ccccc3c3ccccc32)cc1`, the pIC50 is 5.49. The pIC50 under setting [1] was < 4.00. Further, under setting [2], the IC90 was > 100 µM. The molecule also yielded an IC90 under setting [3] of 22.7 µM.
Turning to `C#C[C@]1(O)CC[C@H]2[C@@H]3CCC4=C(CCC(=O)C4)[C@H]3CC[C@@]21C`, the IC50 was > 100 µM (inactive). Moreover, under setting [1], the pIC50 is < 4.00. In addition, under setting [2], the IC90 was > 100 µM. Under setting [3], the IC90 was > 100 µM.
Take `CCCCNC(=O)/C(=C/c1ccccc1)NC(C)=O`: the IC50 was > 100 µM (inactive). The pIC50 under setting [1] was < 4.00. The 90% effect concentration (IC90) under setting [2] is > 100 µM. Besides, under setting [3], the IC90 is > 100 µM.
`COc1ccccc1N1CCN(CC(=O)Nc2cc(F)ccc2C)CC1`: the IC50 is 47 µM (inactive). The molecule further showed a negative-log IC50 (pIC50) under setting [1] of 4.23. Besides, under setting [2], the IC90 was > 100 µM. The molecule also returned a 90% effect concentration (IC90) under setting [3] of 91 µM.
For `COc1ccc(-c2cc(C(F)F)nc(-n3nc(C)cc3C)n2)cc1`, the IC50 is 24.3 µM (inactive). Further, the pIC50 under setting [1] is 4.32. Under setting [2], the IC90 was > 100 µM. Also, the IC90 under setting [3] was found to be 54.1 µM.
For `CCOC(=O)CNC(=O)/C(=C\c1ccc(F)cc1)NC(=O)c1ccccc1`, the pIC50 was 4.72. Further, the pIC50 under setting [1] is 4.26. Also, the IC90 under setting [2] is > 100 µM. Moreover, the IC90 under setting [3] was 35.1 µM.

The values above are taken from PubChem BioAssay AID434987 (Southern Research Specialized Biocontainment Screening …, 2010).
